Data taken from patent US12495798B2, “Nicotinamide compound and herbicidal composition comprising compound” (KOREA RESEARCH INSTITUTE OF CHEMICAL TECHNOLOGY, priority 2019, dated 2025).

How the values were obtained:
Type in all cases: in vivo
[1] = system: sorghum; test: Herbicidal activity test against upland field weeds (foliar treatment test); parameters: key to Foliar treatment herbicidal activity, Sorghum: 0 (no control); 100 (complete control); settings: scale 0-100
How it was run: (§1)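 Greenhouse-grown plants (30±5 °C, 14/10 h light/dark) foliar hand-sprayed with compound in 50% acetone, 0.1% Tween-20 at 50 or 75 g a.i./ha. Control visually scored 0 (none) to 100 (complete) versus untreated after 14 days, or 21 days if needed.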

[2] = system: barnyard grass; test: as above; parameters: key to Foliar treatment herbicidal activity, barnyard grass: 0 (no control); 100 (complete control); settings: scale 0-100
How it was run: as §1

[3] = system: quack grass; test: as above; parameters: key to Foliar treatment herbicidal activity, quack grass: 0 (no control); 100 (complete control); settings: scale 0-100
How it was run: as §1

[4] = system: crabgrass; test: as above; parameters: key to Foliar treatment herbicidal activity, Crabgrass: 0 (no control); 100 (complete control); settings: scale 0-100
How it was run: as §1

[5] = system: fall panicum; test: as above; parameters: key to Foliar treatment herbicidal activity, Fall panicum: 0 (no control); 100 (complete control); settings: scale 0-100; for pest or weed control at 50 g/ha / Foliar treatment herbicidal activity, Fall panicum: 50 g ai/ha
How it was run: as §1

[6] = system: black nightshade; test: as above; parameters: key to Foliar treatment herbicidal activity, black nightshade: 0 (no control); 100 (complete control); settings: scale 0-100; for Foliar treatment herbicidal activity, black nightshade / pest or weed control at 50 g/ha: 50 g ai/ha
How it was run: as §1

[7] = system: indian jointvetch; test: as above; parameters: key to Foliar treatment herbicidal activity, Indian jointvetch: 0 (no control); 100 (complete control); settings: scale 0-100; for Foliar treatment herbicidal activity, Indian jointvetch: 50 g ai/ha
How it was run: as §1

[8] = system: velvetleaf; test: as above; parameters: key to Foliar treatment herbicidal activity, velvet leaf: 0 (no control); 100 (complete control); settings: for pest or weed control at 50 g/ha / Foliar treatment herbicidal activity, velvet leaf: 50 g ai/ha; for Foliar treatment herbicidal activity, velvet leaf: scale 0-100
How it was run: as §1

[9] = system: cocklebur; test: as above; parameters: key to Foliar treatment herbicidal activity, Cocklebur: 0 (no control); 100 (complete control); settings: scale 0-100
How it was run: as §1

[10] = system: bindweed; test: as above; parameters: key to Foliar treatment herbicidal activity, Bindweed: 0 (no control); 100 (complete control); settings: scale 0-100
How it was run: as §1

[11] = system: sorghum; test: Herbicidal activity test against upland field weeds (soil treatment test); parameters: key to Soil treatment herbicidal activity, Sorghum: 0 (no control); 100 (complete control); settings: scale 0 (no control) to 100 (complete control); for Soil treatment herbicidal activity, Sorghum: 50 g ai/ha
How it was run: (§2)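 Pre-emergence soil surface spray, day after sowing, into sandy loam pots with fertilizer; compounds at 50 or 75 g a.i./ha in 50% acetone, 0.1% Tween-20. Greenhouse at 30±5 °C, 14/10 h light/dark; visual control rated 0–100 against untreated after 14 days (21 if needed).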

[12] = system: barnyard grass; test: as above; parameters: key to Soil treatment herbicidal activity, barnyard grass: 0 (no control); 100 (complete control); settings: scale 0 (no control) to 100 (complete control)
How it was run: as §2

[13] = system: quack grass; test: as above; parameters: key to Soil treatment herbicidal activity, quack grass: 0 (no control); 100 (complete control); settings: scale 0 (no control) to 100 (complete control); for Soil treatment herbicidal activity, quack grass: 50 g ai/ha
How it was run: as §2

[14] = system: crabgrass; test: as above; parameters: key to Soil treatment herbicidal activity, Crabgrass: 0 (no control); 100 (complete control); settings: scale 0 (no control) to 100 (complete control)
How it was run: as §2

[15] = system: fall panicum; test: as above; parameters: key to Soil treatment herbicidal activity, Fall panicum: 0 (no control); 100 (complete control); settings: scale 0 (no control) to 100 (complete control)
How it was run: as §2

[16] = system: black nightshade; test: as above; parameters: key to Soil treatment herbicidal activity, black nightshade: 0 (no control); 100 (complete control); settings: scale 0 (no control) to 100 (complete control); for pest or weed control at 50 g/ha: Solanum nigrum
How it was run: as §2

[17] = system: indian jointvetch; test: as above; parameters: key to Soil treatment herbicidal activity, Indian jointvetch: 0 (no control); 100 (complete control); settings: scale 0 (no control) to 100 (complete control)
How it was run: as §2

[18] = system: velvetleaf; test: as above; parameters: key to Soil treatment herbicidal activity, velvet leaf: 0 (no control); 100 (complete control); settings: scale 0 (no control) to 100 (complete control); for pest or weed control at 50 g/ha: Abutilon theophrasti, read-out: Soil treatment herbicidal activity, velvet leaf
How it was run: as §2

[19] = system: cocklebur; test: as above; parameters: key to Soil treatment herbicidal activity, Cocklebur: 0 (no control); 100 (complete control); settings: scale 0 (no control) to 100 (complete control)
How it was run: as §2

[20] = system: bindweed; test: as above; parameters: key to Soil treatment herbicidal activity, Bindweed: 0 (no control); 100 (complete control); settings: scale 0 (no control) to 100 (complete control)
How it was run: as §2

[21] = Digitaria sanguinalis, 50 g ai/ha
[22] = Abutilon theophrasti, scale 0-100, read-out: Foliar treatment herbicidal activity, velvet leaf
[23] = Xanthium strumarium, 50 g ai/ha
[24] = Panicum dichotomiflorum, 75 g ai/ha
[25] = Xanthium strumarium, 75 g ai/ha

Cc1cc(C(=O)Nc2nnnn2C)c(OCc2nnnn2C)nc1C(F)(F)F [Compound No. 1-17, 5-methyl-N-(1-methyl-1H-tetrazol-5-yl)-2-((1-methyl-1H-tetrazol-5-yl)methoxy)-6-(trifluoromethyl)nicotinamide]
Foliar treatment herbicidal activity, Sorghum ([1]; 50 g ai/ha): 0
Foliar treatment herbicidal activity, barnyard grass ([2]; 50 g ai/ha): 0
Foliar treatment herbicidal activity, quack grass ([3]; 50 g ai/ha): 0
pest or weed control at 50 g/ha [4, 21]: 20%
pest or weed control at 50 g/ha ([5]; Panicum dichotomiflorum): 20%
Foliar treatment herbicidal activity, black nightshade [6]: 100
Foliar treatment herbicidal activity, Indian jointvetch [7]: 0
pest or weed control at 50 g/ha [8, 22]: 30%
pest or weed control at 50 g/ha [9, 23]: 40%
pest or weed control at 50 g/ha ([10]; 50 g ai/ha): 20%
Soil treatment herbicidal activity, Sorghum [11]: 0
Soil treatment herbicidal activity, barnyard grass ([12]; 50 g ai/ha): 0
Soil treatment herbicidal activity, quack grass [13]: 0
pest or weed control at 50 g/ha [14, 21]: 20%
pest or weed control at 50 g/ha ([15]; Panicum dichotomiflorum, 50 g ai/ha): 20%
Soil treatment herbicidal activity, black nightshade ([16]; 50 g ai/ha): 100
Soil treatment herbicidal activity, Indian jointvetch ([17]; 50 g ai/ha): 0
pest or weed control at 50 g/ha ([18]; 50 g ai/ha): 30%
pest or weed control at 50 g/ha [19, 23]: 40%
pest or weed control at 50 g/ha ([20]; 50 g ai/ha): 20%

Cn1nnc(C[S+]([O-])Cc2nc(C(F)(F)F)ccc2C(=O)Nc2nnnn2C)n1 (stereo not shown) [Compound No. 2-104, N-(1-methyl-1H-tetrazol-5-yl)-2-((((2-methyl-2H-tetrazol-5-yl)methyl)sulfinyl)methyl)-6-(trifluoromethyl)nicotinamide]
plant injury at 50 g/ha ([1]; Sorghum, 50 g ai/ha): 80%
pest or weed control at 50 g/ha ([2]; Echinochloa crus-galli, 50 g ai/ha): 98%
pest or weed control at 50 g/ha ([3]; 50 g ai/ha): 30%
Foliar treatment herbicidal activity, Crabgrass ([4]; 50 g ai/ha): 100
pest or weed control at 50 g/ha ([5]; Panicum dichotomiflorum): 98%
Foliar treatment herbicidal activity, black nightshade [6]: 100
Foliar treatment herbicidal activity, Indian jointvetch [7]: 100
Foliar treatment herbicidal activity, velvet leaf [8]: 100
Foliar treatment herbicidal activity, Cocklebur ([9]; 50 g ai/ha): 100
Foliar treatment herbicidal activity, Bindweed ([10]; 50 g ai/ha): 100
Soil treatment herbicidal activity, Sorghum [11]: 0
Soil treatment herbicidal activity, barnyard grass ([12]; 50 g ai/ha): 0
Soil treatment herbicidal activity, quack grass [13]: 0
Soil treatment herbicidal activity, Crabgrass ([14]; 50 g ai/ha): 0
Soil treatment herbicidal activity, Fall panicum ([15]; 50 g ai/ha): 0
pest or weed control at 50 g/ha ([16]; 50 g ai/ha): 98%
Soil treatment herbicidal activity, Indian jointvetch ([17]; 50 g ai/ha): 0
Soil treatment herbicidal activity, velvet leaf ([18]; 50 g ai/ha): 100
Soil treatment herbicidal activity, Cocklebur ([19]; 50 g ai/ha): 0
Soil treatment herbicidal activity, Bindweed ([20]; 50 g ai/ha): 0

Cn1nnc(CN(OCc2ccccc2)c2nc(C(F)(F)F)ccc2C(=O)Nc2nnnn2C)n1 [Compound No. 2-29, 2-((benzyloxy)((2-methyl-2H-tetrazol-5-yl)methyl)amino)-N-(1-methyl-1H-tetrazol-5-yl)-6-(trifluoromethyl)nicotinamide]
Foliar treatment herbicidal activity, Sorghum ([1]; 50 g ai/ha): 0
Foliar treatment herbicidal activity, barnyard grass ([2]; 50 g ai/ha): 0
Foliar treatment herbicidal activity, quack grass ([3]; 50 g ai/ha): 0
Foliar treatment herbicidal activity, Crabgrass ([4]; 50 g ai/ha): 0
Foliar treatment herbicidal activity, Fall panicum [5]: 0
pest or weed control at 50 g/ha ([6]; Solanum nigrum): 20%
Foliar treatment herbicidal activity, Indian jointvetch [7]: 0
Foliar treatment herbicidal activity, velvet leaf [8]: 0
Foliar treatment herbicidal activity, Cocklebur ([9]; 50 g ai/ha): 0
Foliar treatment herbicidal activity, Bindweed ([10]; 50 g ai/ha): 0
Soil treatment herbicidal activity, Sorghum [11]: 0
Soil treatment herbicidal activity, barnyard grass ([12]; 50 g ai/ha): 0
Soil treatment herbicidal activity, quack grass [13]: 0
Soil treatment herbicidal activity, Crabgrass ([14]; 50 g ai/ha): 0
Soil treatment herbicidal activity, Fall panicum ([15]; 50 g ai/ha): 0
pest or weed control at 50 g/ha ([16]; 50 g ai/ha): 20%
Soil treatment herbicidal activity, Indian jointvetch ([17]; 50 g ai/ha): 0
Soil treatment herbicidal activity, velvet leaf ([18]; 50 g ai/ha): 0
Soil treatment herbicidal activity, Cocklebur ([19]; 50 g ai/ha): 0
Soil treatment herbicidal activity, Bindweed ([20]; 50 g ai/ha): 0

CN(CCc1nnn(C)n1)c1nc(C(F)(F)F)ccc1C(=O)Nc1nnnn1C [Compound No. 2-36, 2-(methyl(2-(2-methyl-2H-tetrazol-5-yl)ethyl)amino)-N-(1-methyl-1H-tetrazol-5-yl)-6-(trifluoromethyl)nicotinamide]
plant injury at 75 g/ha ([1]; Sorghum, 75 g ai/ha): 20%
pest or weed control at 75 g/ha ([2]; Echinochloa crus-galli, 75 g ai/ha): 90%
Foliar treatment herbicidal activity, quack grass ([3]; 75 g ai/ha): 0
pest or weed control at 75 g/ha ([4]; Digitaria sanguinalis, 75 g ai/ha): 60%
pest or weed control at 75 g/ha [5, 24]: 50%
pest or weed control at 75 g/ha ([6]; Solanum nigrum, 75 g ai/ha): 95%
pest or weed control at 75 g/ha ([7]; 75 g ai/ha): 60%
pest or weed control at 75 g/ha ([8]; Abutilon theophrasti, 75 g ai/ha, scale 0-100, read-out: Foliar treatment herbicidal activity, velvet leaf): 50%
pest or weed control at 75 g/ha [9, 25]: 70%
pest or weed control at 75 g/ha ([10]; 75 g ai/ha): 70%
plant injury at 75 g/ha ([11]; Sorghum, 75 g ai/ha): 20%
Soil treatment herbicidal activity, barnyard grass ([12]; 75 g ai/ha): 100
pest or weed control at 75 g/ha ([13]; 75 g ai/ha): 10%
Soil treatment herbicidal activity, Crabgrass ([14]; 75 g ai/ha): 100
pest or weed control at 75 g/ha [15, 24]: 98%
Soil treatment herbicidal activity, black nightshade ([16]; 75 g ai/ha): 100
Soil treatment herbicidal activity, Indian jointvetch ([17]; 75 g ai/ha): 100
Soil treatment herbicidal activity, velvet leaf ([18]; 75 g ai/ha): 100
pest or weed control at 75 g/ha [19, 25]: 90%
pest or weed control at 75 g/ha ([20]; 75 g ai/ha): 70%

CCc1cc(C(=O)Nc2nnnn2C)c(OCc2nnnn2C)nc1C(F)(F)F [Compound No. 1-19, 5-ethyl-N-(1-methyl-1H-tetrazol-5-yl)-2-((1-methyl-1H-tetrazol-5-yl)methoxy)-6-(trifluoromethyl)nicotinamide]
Foliar treatment herbicidal activity, Sorghum ([1]; 50 g ai/ha): 0
Foliar treatment herbicidal activity, barnyard grass ([2]; 50 g ai/ha): 0
Foliar treatment herbicidal activity, quack grass ([3]; 50 g ai/ha): 0
Foliar treatment herbicidal activity, Crabgrass ([4]; 50 g ai/ha): 0
Foliar treatment herbicidal activity, Fall panicum [5]: 0
pest or weed control at 50 g/ha ([6]; Solanum nigrum): 90%
Foliar treatment herbicidal activity, Indian jointvetch [7]: 0
pest or weed control at 50 g/ha [8, 22]: 20%
Foliar treatment herbicidal activity, Cocklebur ([9]; 50 g ai/ha): 0
Foliar treatment herbicidal activity, Bindweed ([10]; 50 g ai/ha): 0
Soil treatment herbicidal activity, Sorghum [11]: 0
Soil treatment herbicidal activity, barnyard grass ([12]; 50 g ai/ha): 0
Soil treatment herbicidal activity, quack grass [13]: 0
Soil treatment herbicidal activity, Crabgrass ([14]; 50 g ai/ha): 0
Soil treatment herbicidal activity, Fall panicum ([15]; 50 g ai/ha): 0
pest or weed control at 50 g/ha ([16]; 50 g ai/ha): 98%
Soil treatment herbicidal activity, Indian jointvetch ([17]; 50 g ai/ha): 0
pest or weed control at 50 g/ha ([18]; 50 g ai/ha): 20%
Soil treatment herbicidal activity, Cocklebur ([19]; 50 g ai/ha): 0
Soil treatment herbicidal activity, Bindweed ([20]; 50 g ai/ha): 0
